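Following 48 hours of exposure in 96-well plates, responses at five concentrations were used to interpolate endpoints linearly. At the GI50, growth is halved.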 Calls of active or inactive are those of the source. Rule as the data show it: active = GI50 up to about 1.1 µM and inactive = higher.
How the values were obtained:
Test in all cases: NCI-60 cell line screen, 48 h
OVCAR-8 = test system: OVCAR-8
SK-MEL-2 = test system: SK-MEL-2
ACHN = test system: ACHN
EKVX = test system: EKVX
HOP-18 = test system: HOP-18
DMS-114 = test system: DMS-114
CCRF-CEM = test system: CCRF-CEM
U-251 = test system: U-251
IGROV-1 = test system: IGROV-1
SNB-19 = test system: SNB-19
M19-MEL = test system: M19-MEL
Malme-3M = test system: Malme-3M
SF-268 = test system: SF-268
SK-MEL-5 = test system: SK-MEL-5
LXFL 529 = test system: LXFL 529
SW-620 = test system: SW-620
OVCAR-3 = test system: OVCAR-3
DLD-1 = test system: DLD-1

Measured: GI50

COc1cc(/C=N/c2nncs2)ccc1O
inactive: OVCAR-8 > 100 µM | SK-MEL-2 > 100 µM | ACHN > 100 µM | EKVX > 100 µM | HOP-18 > 100 µM | DMS-114 > 100 µM | CCRF-CEM > 100 µM | U-251 > 100 µM | IGROV-1 > 100 µM | SNB-19 > 100 µM | M19-MEL > 100 µM | Malme-3M > 100 µM | SF-268 > 100 µM | SK-MEL-5 > 100 µM | LXFL 529 > 100 µM | SW-620 > 100 µM

CC(C)(C)c1ccc(Oc2ccc(C#N)c(C#N)c2)c(C(C)(C)C)c1
inactive: OVCAR-3 40.1 µM | OVCAR-8 51.4 µM | SK-MEL-2 40.6 µM | ACHN 34.9 µM | EKVX 58.2 µM | HOP-18 > 100 µM | DLD-1 37 µM | DMS-114 19.6 µM | CCRF-CEM 23.2 µM | U-251 33.7 µM | IGROV-1 > 89.7 µM | SNB-19 49.5 µM | Malme-3M > 100 µM | SF-268 32.7 µM | SK-MEL-5 31.3 µM | LXFL 529 31.2 µM | SW-620 49.3 µM

CCc1cccc(CC)c1NC(=O)C(=O)Cc1nc2ccccc2o1
inactive: OVCAR-3 > 100 µM | OVCAR-8 > 100 µM | SK-MEL-2 > 100 µM | ACHN > 100 µM | EKVX > 100 µM | HOP-18 > 100 µM | DLD-1 > 100 µM | DMS-114 > 100 µM | CCRF-CEM > 100 µM | U-251 > 100 µM | IGROV-1 > 100 µM | SNB-19 > 100 µM | M19-MEL > 100 µM | Malme-3M > 100 µM | SF-268 > 100 µM | LXFL 529 > 100 µM | SW-620 > 100 µM

Cc1cc2c(=O)cc(-c3ccc(C(=O)O)cc3)oc2c(C(N)=O)c1C
inactive: OVCAR-3 > 100 µM | OVCAR-8 > 100 µM | SK-MEL-2 > 100 µM | ACHN > 100 µM | EKVX > 100 µM | DLD-1 > 100 µM | DMS-114 > 100 µM | CCRF-CEM > 100 µM | U-251 > 100 µM | IGROV-1 > 100 µM | SNB-19 > 100 µM | M19-MEL > 100 µM | Malme-3M > 100 µM | SF-268 > 100 µM | SK-MEL-5 > 100 µM | LXFL 529 > 100 µM | SW-620 > 100 µM

O=C(c1cc(O)ccc1O)c1ccccc1C(Cl)(Cl)Cl
inactive: OVCAR-3 79.1 µM | OVCAR-8 80.9 µM | SK-MEL-2 > 100 µM | ACHN > 100 µM | EKVX 75.5 µM | HOP-18 > 100 µM | DMS-114 32 µM | CCRF-CEM 61.5 µM | U-251 > 100 µM | IGROV-1 > 100 µM | SNB-19 > 100 µM | M19-MEL 90.8 µM | Malme-3M > 100 µM | SF-268 > 100 µM | SK-MEL-5 35.6 µM | LXFL 529 61.4 µM | SW-620 > 100 µM

COC(=O)c1c(OC)cccc1C(=O)O
inactive: OVCAR-3 > 100 µM | OVCAR-8 > 100 µM | SK-MEL-2 > 100 µM | ACHN > 100 µM | EKVX > 100 µM | HOP-18 > 100 µM | DMS-114 > 100 µM | CCRF-CEM > 100 µM | U-251 > 100 µM | IGROV-1 > 100 µM | SNB-19 > 100 µM | M19-MEL > 100 µM | Malme-3M > 100 µM | SF-268 > 100 µM | SK-MEL-5 > 100 µM | LXFL 529 > 100 µM | SW-620 > 100 µM

CC1CC(=O)Nc2ccc(Cl)cc2N1C(=O)CN1CCC(CCCCN(C)C)CC1 (stereo not drawn)
inactive: OVCAR-3 > 100 µM | OVCAR-8 > 100 µM | ACHN > 100 µM | HOP-18 > 100 µM | DLD-1 > 100 µM | DMS-114 > 100 µM | CCRF-CEM > 100 µM | U-251 > 100 µM | IGROV-1 > 100 µM | SNB-19 > 100 µM | Malme-3M > 100 µM | SF-268 > 100 µM | SK-MEL-5 > 100 µM | LXFL 529 > 100 µM | SW-620 > 100 µM

CCCCC(C(=O)CCC(=O)Nc1ccc(Cl)cc1)C(=O)C(C)C (stereo not drawn)
inactive: OVCAR-3 > 100 µM | OVCAR-8 > 100 µM | SK-MEL-2 > 100 µM | ACHN > 100 µM | EKVX > 100 µM | DLD-1 > 100 µM | DMS-114 > 100 µM | CCRF-CEM > 100 µM | U-251 > 100 µM | IGROV-1 > 100 µM | SNB-19 > 100 µM | M19-MEL > 100 µM | Malme-3M > 100 µM | SF-268 > 100 µM | SK-MEL-5 > 100 µM | LXFL 529 92.7 µM | SW-620 > 100 µM

COc1ccc2c3ccc4c(c3n(C)c2c1)C(=O)c1ccccc1C4=O
inactive: OVCAR-8 36.9 µM | ACHN 51.3 µM | EKVX > 100 µM | HOP-18 > 100 µM | DLD-1 > 100 µM | DMS-114 > 100 µM | CCRF-CEM > 100 µM | U-251 63.8 µM | IGROV-1 > 100 µM | SNB-19 > 100 µM | M19-MEL > 100 µM | Malme-3M 85.7 µM | SF-268 56.6 µM | SK-MEL-5 > 100 µM | LXFL 529 78 µM | SW-620 80.2 µM

OCC(O)C(O)C(O)c1nn(-c2ccc(Cl)cc2)c2nc3cc(Cl)c(Cl)cc3nc12 (stereo not drawn)
inactive: OVCAR-3 > 100 µM | OVCAR-8 22.5 µM | SK-MEL-2 24.8 µM | ACHN 73.1 µM | EKVX 22.8 µM | HOP-18 31.9 µM | DLD-1 > 100 µM | DMS-114 94.4 µM | CCRF-CEM 52.1 µM | U-251 57.5 µM | IGROV-1 31.8 µM | SNB-19 33.7 µM | M19-MEL > 100 µM | Malme-3M 15.2 µM | SF-268 71.1 µM | LXFL 529 33 µM | SW-620 > 100 µM

CN(C)c1ccc(/C=C/C(=O)c2ccccc2)cc1Br
inactive: OVCAR-3 17.8 µM | OVCAR-8 23.2 µM | SK-MEL-2 18.4 µM | ACHN 22.8 µM | EKVX > 100 µM | DLD-1 18.9 µM | DMS-114 17.3 µM | CCRF-CEM 20.5 µM | U-251 18.5 µM | IGROV-1 20.2 µM | SNB-19 18.8 µM | M19-MEL 18.7 µM | Malme-3M 17.6 µM | SF-268 18.2 µM | SK-MEL-5 18.4 µM | LXFL 529 15.1 µM | SW-620 19.9 µM

COc1cc(/C=C(\C#N)C(=O)c2ccccc2)cc(OC)c1OC
inactive: OVCAR-3 > 100 µM | OVCAR-8 > 100 µM | SK-MEL-2 > 100 µM | ACHN > 100 µM | EKVX > 100 µM | HOP-18 > 100 µM | DLD-1 > 100 µM | DMS-114 > 100 µM | CCRF-CEM > 100 µM | U-251 > 100 µM | SNB-19 > 100 µM | M19-MEL > 100 µM | Malme-3M > 100 µM | SF-268 > 100 µM | SK-MEL-5 > 100 µM | LXFL 529 > 100 µM | SW-620 > 100 µM

COc1cc2c(cc1O)[C@H](Cc1ccc(Oc3cc(C[C@H]4c5cc(OC)c(OC)cc5CCN4C)ccc3OC)cc1)NCC2
inactive: OVCAR-3 10.5 µM | OVCAR-8 14.5 µM | SK-MEL-2 17 µM | ACHN 11.4 µM | EKVX > 10 µM | HOP-18 17.1 µM | DMS-114 18.7 µM | CCRF-CEM 9.64 µM | U-251 12 µM | IGROV-1 15.2 µM | SNB-19 16.1 µM | M19-MEL 22.6 µM | Malme-3M 22.1 µM | SF-268 11.1 µM | LXFL 529 13.7 µM | SW-620 11.6 µM

COC1=CC(C)C2C[C@H]3O[C@H](O)C[C@H]4C(C)C(=O)C(O)C([C@@]2(C)C1=O)[C@@]34C (stereo partly drawn)
inactive: OVCAR-3 > 100 µM | OVCAR-8 > 100 µM | ACHN > 100 µM | EKVX > 100 µM | HOP-18 > 100 µM | DLD-1 > 100 µM | DMS-114 > 100 µM | CCRF-CEM > 100 µM | U-251 > 10 µM | IGROV-1 > 100 µM | M19-MEL > 100 µM | Malme-3M > 100 µM | SK-MEL-5 > 100 µM | LXFL 529 > 100 µM | SW-620 > 100 µM

COC(=O)C1CC(OC(C)=O)C=C2C(=O)CCC21 (stereo not drawn)
inactive: OVCAR-3 13.9 µM | OVCAR-8 18.5 µM | SK-MEL-2 29 µM | ACHN 20.2 µM | HOP-18 20.5 µM | DLD-1 14.5 µM | DMS-114 15 µM | CCRF-CEM 16.8 µM | U-251 28.3 µM | IGROV-1 27.2 µM | SNB-19 26.2 µM | M19-MEL 22.4 µM | Malme-3M 19.6 µM | SF-268 16.6 µM | SK-MEL-5 20.5 µM | LXFL 529 15.5 µM | SW-620 20.3 µM

CC(C)c1ccc(C(c2ccc(OCC(=O)O)cc2)c2ccc(C(C)C)cc(=O)c2O)c(O)c(=O)c1
inactive: OVCAR-3 2.77 µM | OVCAR-8 4.44 µM | ACHN 4.66 µM | EKVX 4.93 µM | HOP-18 9.89 µM | DLD-1 3.48 µM | DMS-114 2.92 µM | CCRF-CEM 4.05 µM | U-251 5.3 µM | IGROV-1 4.33 µM | SNB-19 5.89 µM | M19-MEL 4.94 µM | SK-MEL-5 3.22 µM | LXFL 529 4.5 µM | SW-620 4.8 µM

From ChEMBL document CHEMBL1201862, “PubChem BioAssay data set” (2004)
